Data reported in patent US20230114728A1 (Venatorx Pharmaceuticals, Inc., priority 2019, published 2023).
≈ marks a conversion by molar mass, not a printed value.

Assays:
Test in all cases: Broth microdilution MIC in CAMHB
Format in all cases: cell-based
A. baumannii ATCC 19606 = conditions: Acinetobacter baumannii, ATCC19606; MHB; read-out: Minimum Inhibitory Concentration, A. baumannii ATCC 19606
Method in brief: (§1)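 MIC, read by eye, is the lowest compound concentration giving no bacterial growth after 16-20 h at 37° C. Test compounds are serially diluted 2-fold in CAMHB and seeded with 2-8×10^5 CFU/mL of bacteria taken from a 3-5 h shaking culture, following CLSI methods.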

E. coli 901C = conditions: Escherichia coli; E. coli 901C (hyper-permeable); MHB; read-out: Minimum Inhibitory Concentration, E. coli 901C
Method in brief: as §1

E. coli AG100A = conditions: Escherichia coli, read-out: Minimum Inhibitory Concentration, E. coli AG100A
Method in brief: as §1

E. coli AG100 = conditions: Escherichia coli; E. coli AG100 (wild-type parent); MHB; read-out: Minimum Inhibitory Concentration, E. coli AG100
Method in brief: as §1

E. coli ATCC 25922 = conditions: Escherichia coli, ATCC25922; E. coli ATCC 25922; MHB; read-out: Minimum Inhibitory Concentration, E. coli 25922
Method in brief: as §1

E. coli D22 = conditions: Escherichia coli; E. coli D22 (hyper-permeable); MHB; read-out: Minimum Inhibitory Concentration, E. coli D22
Method in brief: as §1

[1] = test system: K. pneumoniae 848844 producing SHV-11 and KPC-2; conditions: Klebsiella pneumoniae, read-out: Minimum Inhibitory Concentration, K. pneumoniae 848844
Method in brief: as §1

[2] = test system: K. pneumoniae SI-117 producing VIM-1; conditions: Klebsiella pneumoniae, read-out: Minimum Inhibitory Concentration, K. pneumoniae SI-117
Method in brief: as §1

[3] = test system: K. pneumoniae UMM producing SHV-5 and KPC-2; conditions: Klebsiella pneumoniae, read-out: Minimum Inhibitory Concentration, K. pneumoniae UMM
Method in brief: as §1

[4] = test system: P. aeruginosa (ΔmexAB-oprM); conditions: Pseudomonas aeruginosa, read-out: Minimum Inhibitory Concentration, P. aeruginosa ΔmexAB-OprM
Method in brief: as §1

P. aeruginosa ATCC 27853 = conditions: Pseudomonas aeruginosa, ATCC27853; MHB; read-out: Minimum Inhibitory Concentration, P. aeruginosa ATCC 27853
Method in brief: as §1

P. aeruginosa ATCC 35151 = conditions: Pseudomonas aeruginosa, ATCC35151; MHB; hyper-permeable strain; read-out: Minimum Inhibitory Concentration, P. aeruginosa ATCC 35151
Method in brief: as §1

SMILES | MIC (A. baumannii ATCC 19606) [µg/mL] | MIC (E. coli 901C) [µg/mL] | MIC (E. coli AG100A) [µg/mL] | MIC (E. coli AG100) [µg/mL] | MIC (E. coli ATCC 25922) [µg/mL] | MIC (E. coli D22) [µg/mL] | MIC [1] [µg/mL] | MIC [2] [µg/mL] | MIC [3] [µg/mL] | MIC [4] [µg/mL] | MIC (P. aeruginosa ATCC 27853) [µg/mL] | MIC (P. aeruginosa ATCC 35151) [µg/mL]
O=C(O)c1c(F)ccc2c1OB(O)[C@@H](NC(=O)C(NC(=O)N1CCN(CCF)C(=O)C1=O)c1c(F)cc(O)cc1F)C2 (stereo partly drawn) [Example 129, (3R)-3-(2-(2,6-difluoro-4-hydroxyphenyl)-2-(4-(2-fluoroethyl)-2,3-dioxopiperazine-1-carboxamido)acetamido)-7-fluoro-2-hydroxy-3,4-dihydro-2H-benzo[e][1,2]oxaborinine-8-carboxylic acid] | > 128 | 0.5 to 1 (≈ 0.839 to 1.68 µM) | 8 to 16 (≈ 13.4 to 26.8 µM) | 32 to 64 (≈ 53.7 to 107 µM) | 32 to 64 (≈ 53.7 to 107 µM) | 2 to 4 (≈ 3.35 to 6.71 µM) | 32 to 64 (≈ 53.7 to 107 µM) | 32 to 64 (≈ 53.7 to 107 µM) | 32 to 64 (≈ 53.7 to 107 µM) | 32 to 64 (≈ 53.7 to 107 µM) | > 128 | 0.5 to 1 (≈ 0.839 to 1.68 µM)
CCN1CCN(C(=O)NC(C(=O)N[C@H]2Cc3cccc(C(=O)O)c3OB2O)c2cc(F)c(O)c(Cl)c2)C(=O)C1=O (stereo partly drawn) [Example 164, (3R)-3-(2-(3-chloro-5-fluoro-4-hydroxyphenyl)-2-(4-ethyl-2,3-dioxopiperazine-1-carboxamido)acetamido)-2-hydroxy-3,4-dihydro-2H-benzo[e][1,2]oxaborinine-8-carboxylic acid] | > 128 | < 0.25 | 2 to 4 (≈ 3.47 to 6.94 µM) | 32 to 64 (≈ 55.5 to 111 µM) | 32 to 64 (≈ 55.5 to 111 µM) | 2 to 4 (≈ 3.47 to 6.94 µM) | > 128 | > 128 | 32 to 64 (≈ 55.5 to 111 µM) | 2 to 4 (≈ 3.47 to 6.94 µM) | > 128 | < 0.25
CCN1CCN(C(=O)NC(C(=O)N[C@H]2Cc3cccc(C(=O)O)c3OB2O)c2cc(F)c(O)cc2F)C(=O)C1=O (stereo partly drawn) [Example 104, (3R)-3-(2-(2,5-difluoro-4-hydroxyphenyl)-2-(4-ethyl-2,3-dioxopiperazine-1-carboxamido)acetamido)-2-hydroxy-3,4-dihydro-2H-benzo[e][1,2]oxaborinine-8-carboxylic acid] | > 128 | < 0.25 | 2 to 4 (≈ 3.57 to 7.14 µM) | 32 to 64 (≈ 57.1 to 114 µM) | 32 to 64 (≈ 57.1 to 114 µM) | 2 to 4 (≈ 3.57 to 7.14 µM) | > 128 | 32 to 64 (≈ 57.1 to 114 µM) | 32 to 64 (≈ 57.1 to 114 µM) | 8 to 16 (≈ 14.3 to 28.6 µM) | > 128 | 2 to 4 (≈ 3.57 to 7.14 µM)
CCN1CCN(C(=O)N[C@@H](C(=O)N[C@H]2Cc3cccc(C(=O)O)c3OB2O)c2ccc(C(=O)O)c(Cl)c2)C(=O)C1=O (single isomer, unassigned) [Example 154] | 32 to 64 (≈ 54.5 to 109 µM) | < 0.25 | 8 to 16 (≈ 13.6 to 27.3 µM) | 32 to 64 (≈ 54.5 to 109 µM) | 32 to 64 (≈ 54.5 to 109 µM) | 2 to 4 (≈ 3.41 to 6.82 µM) | > 128 | – | 32 to 64 (≈ 54.5 to 109 µM) | 8 to 16 (≈ 13.6 to 27.3 µM) | > 128 | < 0.25
O=C(O)c1cccc2c1OB(O)[C@@H](NC(=O)[C@H](NC(=O)N1CCN(CCF)C(=O)C1=O)c1c(F)cc(O)cc1F)C2 (single isomer, unassigned) [Example 126] | > 128 | < 0.25 | – | 8 to 16 (≈ 13.8 to 27.7 µM) | 8 to 16 (≈ 13.8 to 27.7 µM) | 0.5 to 1 (≈ 0.865 to 1.73 µM) | 32 to 64 (≈ 55.3 to 111 µM) | 8 to 16 (≈ 13.8 to 27.7 µM) | 8 to 16 (≈ 13.8 to 27.7 µM) | 8 to 16 (≈ 13.8 to 27.7 µM) | > 128 | 2 to 4 (≈ 3.46 to 6.92 µM)
CCN1CCN(C(=O)NC(C(=O)N[C@H]2Cc3cccc(C(=O)O)c3OB2O)c2c(F)cc(O)cc2F)C(=O)C1=O (stereo partly drawn) [Example 105, (3R)-3-(2-(2,6-difluoro-4-hydroxyphenyl)-2-(4-ethyl-2,3-dioxopiperazine-1-carboxamido)acetamido)-2-hydroxy-3,4-dihydro-2H-benzo[e][1,2]oxaborinine-8-carboxylic acid] | – | < 0.25 | 0.5 to 1 (≈ 0.892 to 1.78 µM) | 8 to 16 (≈ 14.3 to 28.6 µM) | 8 to 16 (≈ 14.3 to 28.6 µM) | 0.5 to 1 (≈ 0.892 to 1.78 µM) | 32 to 64 (≈ 57.1 to 114 µM) | 32 to 64 (≈ 57.1 to 114 µM) | 8 to 16 (≈ 14.3 to 28.6 µM) | – | – | –
